# Measured values taken from patent publication US11478467B2 (priority 2017, dated 2022).
# Where two headings read alike, the source gives them in different places.
# What was measured:
# [1] = Pharmacokinetic study of sarpogrelate hydrochloride i.v. in rats; format: in vivo, rat; details: after sarpogrelate hydrochloride 2 mg/kg i.v.
# Description: Pharmacokinetic study was performed in male Wistar rats equipped with the jugular vein cannulas. Sarpogrelate hydrochloride was formulated in Pharmasolv: PBS buffer (5:95) mixture and administered at the dose of 2 mg/kg intravenously. Blood samples were collected from the jugular vein using heparin as anticoagulant at the scheduled time-points: 5 min, 15 min, 30 min, 1 h, 1.5 h, 2 h, 4 h, and 6 h. An LC-MS/MS bioanalytical method was used for the simultaneous quantification of sarpogrelate and M1 in plasma samples. […] Formation of M1 metabolite of sarpogrelate was rapid as the highest M1 concentrations were measured at the first sampling time points.
# [2] = format: in vivo, rat; details: 10 mg/kg intraperitoneally, male SD rats
# Description: Adult male SD rats were pretreated with the compound 146 or M1 (10 mg/kg intraperitoneally) and the brain and blood plasma were collected 30, 60, 120 and 240 min after M1 administration. The amount of compound in brain tissue extracts was measured using the UPLC/MS analysis.
# CYP2D6 = CYP2D6 (Homo sapiens (Human), UniProt P10635); details: dextromethorphan as substrate; cited from earlier work
# [3] = tested on: MK-801-induced hyperactivity; details: 0.1 and 0.3 mg/kg s.c.; MK-801 0.3 mg/kg i.p.; mice; cited from earlier work
# [4] = tested on: Parkinson's disease psychosis; details: cited from earlier work
# [5] = tested on: locomotor activity, stereotypy, ataxia; details: rats, cited from earlier work; for PCP-elicited hyperactivity / motor behaviors after pretreatment: 10 mg/kg PCP; for behavioral effects given alone (locomotor hyperactivity, stereotypy, ataxia): DO 15-120 mg/kg, DEX 15-120 mg/kg, PCP 1.25-20 mg/kg
# [6] = cited from earlier work; for basal insulin secretion: mouse or human islets or in vivo
# NMDA receptors = details: compared to that of DEX; cited from earlier work
# [7] = tested on: PCP-induced hyperactivity; experiment: Phencyclidine-induced hyperactivity in rats (sarpogrelate and dextromethorphan); format: in vivo, rat; details: dextromethorphan by itself
# [8] = Blood glucose levels and oral glucose tolerance in rats; format: in vivo, rat; details: given alone, intraperitoneal
# Description: Test substances were administered to male Wistar (Han) rats (180-280 g at the beginning of the experiments; Janvier Labs) housed in groups under free access to food and water. After overnight food deprivation, the tip of the tail was cut, each rat was weighed, housed individually and left without stress in a quiet room. Approximately 1 hour later, baseline blood glucose was measured from a drop of blood collected from the tail tip, using a commercially available glucose-meter (OneTouch®, Lifescan) and then rats received intraperitoneal injection of sarpogrelate and/or dextromethorphan and 30 min later blood glucose was measured again and rats immediately challenged with glucose at 2 g/kg by oral gavage. Then, blood glucose was measured at 6 time-points until 180 minutes post-glucose challenge.
# [9] = tested on: rat primary mixed mesencephalic neuron-glia cultures; details: 1-10 micro M; cited from earlier work
# [10] = cited from earlier work
# [11] = high doses; cited from earlier work
# insomnia = details: human, in vivo; cited from earlier work
# [12] = tested on: treatment-resistant major depressive disorder; details: in vivo; cited from earlier work
# [13] = tested on: generalized anxiety disorder; details: human, in vivo; cited from earlier work
# dopamine D2 receptors = dopamine D2 receptors (Homo sapiens (Human), UniProt P14416); details: cited from earlier work
# [14] = dose-range that covers therapeutically relevant exposures; cited from earlier work
# 5-HT2A/5-HT2C receptors = details: in vivo; cited from earlier work
# Sequence of CYP2D6 (P10635 whole entry): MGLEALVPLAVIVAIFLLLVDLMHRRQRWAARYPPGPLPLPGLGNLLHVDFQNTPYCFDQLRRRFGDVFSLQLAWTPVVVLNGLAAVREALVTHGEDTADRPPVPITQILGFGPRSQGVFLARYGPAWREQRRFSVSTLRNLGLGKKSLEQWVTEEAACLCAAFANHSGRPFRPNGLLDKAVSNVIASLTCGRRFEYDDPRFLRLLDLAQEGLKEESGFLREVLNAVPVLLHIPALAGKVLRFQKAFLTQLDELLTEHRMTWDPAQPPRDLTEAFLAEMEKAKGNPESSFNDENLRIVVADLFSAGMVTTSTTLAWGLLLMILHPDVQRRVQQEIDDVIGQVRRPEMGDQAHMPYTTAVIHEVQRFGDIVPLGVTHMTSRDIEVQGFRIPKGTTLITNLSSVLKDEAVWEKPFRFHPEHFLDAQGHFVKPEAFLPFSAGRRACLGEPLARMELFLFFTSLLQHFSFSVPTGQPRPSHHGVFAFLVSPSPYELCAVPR
# Sequence of dopamine D2 receptors (P14416 whole entry): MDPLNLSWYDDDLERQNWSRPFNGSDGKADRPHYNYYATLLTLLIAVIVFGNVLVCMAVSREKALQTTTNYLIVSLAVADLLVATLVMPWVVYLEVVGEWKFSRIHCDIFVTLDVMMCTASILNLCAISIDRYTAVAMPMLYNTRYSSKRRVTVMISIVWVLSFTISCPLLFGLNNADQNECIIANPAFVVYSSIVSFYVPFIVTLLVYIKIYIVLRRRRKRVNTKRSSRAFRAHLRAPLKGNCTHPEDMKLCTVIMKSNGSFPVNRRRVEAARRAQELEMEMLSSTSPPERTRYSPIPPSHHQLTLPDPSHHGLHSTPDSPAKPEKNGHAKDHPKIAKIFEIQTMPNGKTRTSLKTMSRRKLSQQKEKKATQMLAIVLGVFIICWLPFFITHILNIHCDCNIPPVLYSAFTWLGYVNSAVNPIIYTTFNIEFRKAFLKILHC
compound,measurement,setting,value
"COc1cccc(CCc2ccccc2OCC(O)CN(C)C)c1 (racemic) [Compound 146, 1-(dimethylamino)-3-(2-(3-methoxyphenethyl)phenoxy)propan-2-ol]",Formation of M1 metabolite of sarpogrelate,[1],rapid
same,M1/sarpogrelate ratio,[1]; plasma,2.98±0.597%
same,total brain concentration vs blood concentration,"[2]; 30, 60, 120 and 240 min",significantly exceeded the blood concentration
same,penetration into the brain,[2],readily penetrates into the brain
same,inhibition type (Dixon plots),CYP2D6,fit well to all competitive inhibition types
"CC(C)COc1ccc(CNC(=O)N(Cc2ccc(F)cc2)C2CCN(C)CC2)cc1 [ACP-103, N-(4-fluorophenylmethyl)-N-(1-methylpiperidin-4-yl)-N′-(4-(2-methylpropyloxy)phenylmethyl) carbamide (2R,3R)-dihydroxybutanedioate (2:1)]",MK-801-induced hyperactivity,[3],significantly attenuated MK-801-induced hyperactivity
same,night-time sleep and daytime wakefulness,[4]; compared with placebo,improvements on night-time sleep and daytime wakefulness
same,psychotic symptoms (hallucinations and delusions),[4]; patients with moderate to severe Parkinson's disease,significantly reduced psychotic symptoms
"CN1CC[C@@]23CCCC[C@@H]2[C@@H]1Cc1ccc(O)cc13 [DO, dextrorphan]",PCP-elicited hyperactivity / motor behaviors after pretreatment,[5],facilitated
same,PCP-elicited hyperactivity / motor behaviors after pretreatment,[5]; listed as dextrorphan,but not its metabolite dextrorphan
same,"behavioral effects given alone (locomotor hyperactivity, stereotypy, ataxia)",[5],"dose-dependent locomotor hyperactivity, stereotypy and ataxia"
same,basal insulin secretion,[6],did not significantly alter basal insulin secretion
same,affinity for NMDA receptors,NMDA receptors,substantially higher affinity
"COc1ccc2c(c1)[C@@]13CCCC[C@H]1[C@@H](C2)N(C)CC3 [dextromethorphan, 3-methoxy-17-methylmorphinan]",motor activity in PCP-treated rats,[7]; oral administration,enhanced
same,motor activity in PCP-treated rats,[7]; subcutaneous administration,reduced
same,blood glucose level (AUC 30-180 min after oral glucose 2 g/kg),[8],significantly reduced blood glucose level
same,PCP-elicited hyperactivity / motor behaviors after pretreatment,[5],attenuate phencyclidine-induced motor behaviors
same,PCP-elicited hyperactivity / motor behaviors after pretreatment,[5]; listed as DEX,dose-dependently inhibited
same,"behavioral effects given alone (locomotor hyperactivity, stereotypy, ataxia)",[5],induced moderate hyperactivity only at the higher doses
same,glucose-induced plasma insulin concentrations and glucose tolerance,"[6]; DEX via drinking water 4 mg/ml overnight, glucose i.p., mice",significantly higher glucose-induced plasma insulin concentrations and glucose tolerance
same,basal plasma insulin and fasting blood glucose concentrations,"[6]; DEX via drinking water 4 mg/ml overnight, mice",changed neither basal plasma insulin nor fasting blood glucose concentrations
same,basal insulin secretion,[6],did not significantly alter basal insulin secretion
same,protection of dopamine neurons,[9],protected dopamine neurons against lipopolysaccharide (LPS)-induced reduction of dopamine uptake
same,area under the curve of blood glucose concentrations within the first 2 h of the OGTT (glucose AUC1-3 h),[10]; 270 mg DEX vs placebo,significantly (P<0.05) smaller
same,maximal serum insulin concentrations following oral glucose intake,[10]; 60 and 270 mg DEX vs placebo,significantly (P<0.05) higher maximal serum insulin concentrations
same,fasting serum insulin and fasting blood glucose concentrations,"[10]; single oral dose 60 or 270 mg, males with T2DM on metformin",led to neither higher fasting serum insulin concentrations nor lower fasting blood glucose concentrations
same,severe hypoglycemic events,[10]; up to a dose of 270 mg,did not provoke any severe hypoglycemic events
same,"heart rate, blood pressure, temperature, and plasma bromide",[11],"mild elevations of heart rate, blood pressure, temperature, and plasma bromide"
CN(C)CCO/N=C(/C=C/c1ccc(O)cc1)c1ccccc1F [eplivanserin],clinical efficacy in insomnia,insomnia,demonstrated clinical efficacy in patients with insomnia
"CNC1(c2ccccc2Cl)CCCCC1=O (stereo not shown) [ketamine, 2-(2-chlorophenyl)-2-(methylamino)cyclohexan-1-one]",antidepressant activity,[12],rapid and robust antidepressant activity
COC(=O)c1c2n(c3ccccc13)Cc1ccccc1N1CCN(C)CC21.Cl (stereo not shown) [serazepine],efficacy in generalized anxiety disorder,[13],shown efficacy
"N,N-dimethyl-2-[[(1R,3S,4R)-4,7,7-trimethyl-3-phenyl-3-bicyclo[2.2.1] heptanyl] oxy]ethanamine [Compound 829]",selectivity against dopamine D2 receptors,dopamine D2 receptors,at least 10 fold
same,prolactin,[14],not found to elevate prolactin
same,down-regulation of 5-HT2A/5-HT2C receptors,5-HT2A/5-HT2C receptors,does not induce down-regulation of these receptors
